Measured values: PubChem BioAssay AID504745 (National Center for Advancing Translational Sciences (NCATS), 2011)

System: Caco-2 bidirectional permeability, efflux ratio, LC-MS/MS
Assay: Inhibitors of N370S glucocerebrosidase as a Potential Chaperone Treatment of Gaucher Disease: Efflux Ratio Profiling
Conditions: stronger effect = lower value
Text: Glucocerebrosidase (GC) catalyzes the hydrolysis of beta-glucocerebroside to glucose and ceramide in lysosomes. Mutations in the glucocerebrosidase gene result in Gaucher disease, an autosomal recessive lysosomal storage disorder. Many of the mutations encountered in patients with Gaucher disease are missense alterations that may cause misfolding, decreased stability and/or mistrafficking of this lysosomal protein. […] These inhibitors include iminosugar analogs and three non-iminosugar inhibitors identified from a previous HTS of 62,000 compounds with the wild type recombinant enzyme. After further testing a probe has been identified and was characterized though AMDE tests. This bioassays provides profiling data on Caco-2 cell permeability of leads compounds developed for the HPGD project. This in vitro model is often predictive of in vivo efflux of the compound by measuring the ratio of transport in and out the plasma membrane of the Caco2-cell line. NIH Chemical Genomics Center [NCGC] NIH Molecular Libraries Probe Production Centers Network [MLPCN] MLPCN Grant: MH086442-01 Assay Submitter (PI): Wei Zheng
1. […] The T0, LY and T90, LY plates are read by FlexStation 3 at excitation of 485 nm and emission of 535 nm to determine LY permeability. […]

SMILES: S=C(NCCCc1cnc[nH]1)NCCCN(Cc1ccc(Cl)c(Cl)c1)c1ccc(Br)cn1
- efflux ratio: 9.9
